Experiments:
[1] = Absorption and fluorescence emission spectra of the dyes in solvent; type: physicochemical; conditions: for Emission max, nm: excitation 700 nm
Method: Absorption spectra were recorded on a Beckman Coulter DU 640 UV-visible spectrophotometer (Brea, CA) and fluorescence spectra were recorded on a Fluorolog-3 spectrofluorometer (Horiba Jobin Yvon, Inc., Edison, NJ). All fluorescence measurements were conducted at room temperature and were recorded at excitation of 700 nm and emission scan from 715-900 nm.

[2] = Fluorescence lifetime (FLT) by time-correlated single photon counting; type: physicochemical
Method: Fluorescence lifetimes (FLT) were measured using time-correlated single photon counting (TCSPC implemented in Fluorolog-3, Horiba Jobin Yvon) with a 700 nm excitation source NanoLed® (impulse repetition rate 1 MHz) at 90° to the PMT R928P detector (Hamamatsu Photonics, Japan). […] We chose DMSO as the solvent for this study because it provides a similar environment to the biological systems. The detector was set to 740 nm with a 20 nm bandpass and data were collected until the peak signal reached 10,000 counts.

[3] = Relative fluorescence quantum yield using ICG as a standard; type: physicochemical; conditions: DMSO
Method: The absorption spectra of 4 and 15 were measured in both methanol (FIG. 4(A-B)) and DMSO (FIG. 5(A-D)). […] The broad emission bands allow flexibility in the choice of excitation and fluorescence wavelengths in analytical and biological assays. The relative fluorescence quantum yields of dyes 4 and 15 measured in DMSO using ICG as a standard show the values of 0.24 and 0.093 respectively compared to 0.12 for ICG.

Solubility in water = type: physicochemical
SKBR3-GFP-Luc cells = assay: Cellular fluorescence intensity imaging (NIR channel) of dye uptake; type: cell-based, human; conditions: 5 μM, 24 h incubation
Method: SKBR3-GFP-Luc cells (Dual labeled stable SK-BR-3 expressing green fluorescent protein (GFP) and luciferase, SL032, GeneCopoeia, Rockville, MD) were cultured in Dulbecco's Modified Eagle Medium (DMEM high glucose, Gibco) supplemented with 10% Fetal Bovine Serum (FBS), 1% penicillin/streptomycin and 5 μg/mL puromycin, and maintained in a humidified incubator at 37° C. with 5% CO2 atmosphere. For imaging experiments, these GFP labeled HER2+ human breast cancer cells were plated in Fluorobrite DMEM media (Gibco) supplemented with 10% FBS and 1% pen/strep in an 8-well chamber slide (6.0×10^4 cells in 200 μL media per well). […] All cells were washed with DPBS (300 μL×2) before mounting (Fluoromount-G, #1 coverslip) and imaging the slides with either a Zeiss AxioImager Z2 fluorescence microscope or FLIM.
Fluorescence intensity imaging was conducted on a Zeiss Axioimager.Z2 microscope equipped with a Hamamatsu ORCA Flash 4.0 V2 camera, X-Cite Xylis LED-based light source, and 20× Zeiss Plan-Apochromat air objective (0.8 N.A.) The imaging parameters included DAPI: excitation 335-383 nm/emission 420-470 nm/exposure time […] GFP: ex 450-490 nm/500-550 nm/46 ms exposure and NIR: ex 715-752 nm/760-855 nm/1 s exposure. […]

[4] = DMSO; reference value of ICG standard; cited from earlier work

SMILES | Abs max, nm ([1]; DMSO) | Emission max, nm ([1]; DMSO) | Abs max, nm ([1]; Methanol) | Emission max, nm ([1]; Methanol) | Fluorescent lifetime, ns ([2]; DMSO, 700 nm excitation, detector 740 nm) | Fluorescent lifetime, ns ([2]; Methanol) | Quantum yield (relative fluorescence quantum yield) [3] | Solubility in water (Solubility in water) | Cellular internalization / uptake judged by signal intensity in NIR channel (SKBR3-GFP-Luc cells) | Fluorescence quantum yield of the standard [4]
O=c1cc2/c(=C/C=C/C=C/c3c4c5c(cc(O)cc5oc3=O)OC(O)=C4)c(=O)oc3cc(O)cc(o1)c32 [Dye 4] | 719 nm | 744 nm | 704 nm | 731 nm | 0.65 ns | 0.28 ns | 0.24 | low solubility in water | essentially no appreciable uptake | –
CC1(C)C(/C=C/C=C/C=C/C=C2\N(CCCCS(=O)(=O)O)c3ccc4ccccc4c3C2(C)C)=[N+](CCCCS(=O)(=O)[O-])c2ccc3ccccc3c21 [ICG, indocyanine green] | – | – | – | – | – | – | – | – | – | 0.12

— patent publication US20250099626A1, “COMPOSITIONS AND METHODS FOR OXONOL DYES WITH NEAR INFRARED FLUORESCENCE” (Washington University, priority 2023, published 2025)
